# Laboratory results: patent publication US10738056B2 (Aduro BioTech, Inc., priority 2017, dated 2020)
# Assays:
# [1] = molecular target: Human cGAS amino acids 155-522 (Homo sapiens (Human), UniProt Q8N884); experiment: cGAS biochemical activity assay (ATP remaining, Kinase-Glo Max luminescence); conditions: human cGAS 155-522, ATP remaining (Kinase-Glo Max); read-out: cGAS IC50
# [2] = system: cGAS/STING pathway in THP1 cells; experiment: THP1 cell-based cGAS/STING pathway activity assay (IRF-3-linked luciferase reporter); conditions: Homo sapiens, THP-1
# In short: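 THP1 cells carrying an IRF-3-driven luciferase reporter were read across a range of compound concentrations, and IC50 values were derived from these concentration responses; the assay upper limit was 100 μM.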
# Chain of Human cGAS amino acids 155-522 (Q8N884 157-522): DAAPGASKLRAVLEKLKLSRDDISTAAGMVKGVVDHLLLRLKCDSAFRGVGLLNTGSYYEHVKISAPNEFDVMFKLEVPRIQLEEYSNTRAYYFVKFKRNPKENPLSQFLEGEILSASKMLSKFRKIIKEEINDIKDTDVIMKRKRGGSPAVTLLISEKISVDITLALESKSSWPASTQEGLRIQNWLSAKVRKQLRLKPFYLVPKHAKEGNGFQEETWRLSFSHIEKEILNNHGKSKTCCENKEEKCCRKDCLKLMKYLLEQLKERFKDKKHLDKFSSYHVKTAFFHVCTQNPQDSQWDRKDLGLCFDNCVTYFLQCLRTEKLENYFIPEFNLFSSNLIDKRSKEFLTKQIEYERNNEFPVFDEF
IC50 [1] [µM],IC50 [2] [µM],Structure (SMILES)
< 20,20 to 100,"Cc1[nH]c2c(-c3ccccc3)c(C(F)(F)F)nn2c(=O)c1-c1nc2ccccc2c(=O)[nH]1 [Compound C1019, 2-(5-methyl-7-oxo-3-phenyl-2-(trifluoromethyl)-4,7-dihydropyrazolo[1,5-a]pyrimidin-6-yl)quinazolin-4(3H)-one]"
< 20,> 100,"COc1cccc2oc(-c3c(CN(C)C)[nH]c4c(-c5ccccc5)c(C(F)(F)F)nn4c3=O)nc12 [Compound C1109, 5-((dimethylamino)methyl)-6-(4-methoxybenzo[d]oxazol-2-yl)-3-phenyl-2-(trifluoromethyl)pyrazolo[1,5-a]pyrimidin-7(4H)-one]"
20 to 250,> 100,"COc1cccc2nc(-c3c(C)[nH]c4c(-c5ccccc5)c(C(F)(F)F)nn4c3=O)n(C)c12 [Compound C1065, 6-(7-methoxy-1-methyl-1H-benzo[d]imidazol-2-yl)-5-methyl-3-phenyl-2-(trifluoromethyl)pyrazolo[1,5-a]pyrimidin-7(4H)-one]"
< 20,> 100,"Cc1[nH]c2c(-c3ccccc3)c(C(F)(F)F)nn2c(=O)c1C(=O)Nc1cc(C)n(C)n1 [Compound A1079, N-(1,5-dimethyl-1H-pyrazol-3-yl)-5-methyl-7-oxo-3-phenyl-2-(trifluoromethyl)-4,7-dihydropyrazolo[1,5-a]pyrimidine-6-carboxamide]"
< 20,> 100,"Cc1[nH]c2c(-c3ccccc3)c(C(F)(F)F)nn2c(=O)c1-c1nc2c(OCCNS(C)(=O)=O)cccc2o1 [Compound C1066, N-(2-((2-(5-methyl-7-oxo-3-phenyl-2-(trifluoromethyl)-4,7-dihydropyrazolo[1,5-a]pyrimidin-6-yl)benzo[d]oxazol-4-yl)oxy)ethyl)methanesulfonamide]"
< 20,20 to 100,"COc1cccc2oc(-c3c(C(=O)NC4COC4)[nH]c4c(-c5ccccc5)c(C(F)(F)F)nn4c3=O)nc12 [Compound C1185, 6-(4-methoxybenzo[d]oxazol-2-yl)-N-(oxetan-3-yl)-7-oxo-3-phenyl-2-(trifluoromethyl)-4,7-dihydropyrazolo[1,5-a]pyrimidine-5-carboxamide]"
< 20,< 20,"Cc1[nH]c2c(-c3ccccc3)c(C(F)(F)F)nn2c(=O)c1-c1nc2c(F)cccc2o1 [Compound C1076, 6-(4-fluorobenzo[d]oxazol-2-yl)-5-methyl-3-phenyl-2-(trifluoromethyl)pyrazolo[1,5-a]pyrimidin-7(4H)-one]"
< 20,< 20,"Cc1[nH]c2c(-c3ccccc3)c(C(F)(F)F)nn2c(=O)c1C(=O)Nc1cccc2c1OCC2 [Compound A1101, N-(2,3-dihydrobenzofuran-7-yl)-5-methyl-7-oxo-3-phenyl-2-(trifluoromethyl)-4,7-dihydropyrazolo[1,5-a]pyrimidine-6-carboxamide]"
< 20,> 100,"Cc1[nH]c2c(-c3ccccc3)c(C#N)nn2c(=O)c1-c1nc2cc(N)ccc2o1 [Compound C1181, 6-(5-aminobenzo[d]oxazol-2-yl)-5-methyl-7-oxo-3-phenyl-4,7-dihydropyrazolo[1,5-a]pyrimidine-2-carbonitrile]"
< 20,< 20,"Cc1[nH]c2c(-c3ccccc3)c(C(F)(F)F)nn2c(=O)c1-c1nnc(C2(C(F)(F)F)CC2)o1 [Compound D1038, 5-methyl-3-phenyl-2-(trifluoromethyl)-6-(5-(1-(trifluoromethyl)cyclopropyl)-1,3,4-oxadiazol-2-yl)pyrazolo[1,5-a]pyrimidin-7(4H)-one]"
< 20,> 100,"COc1cccc2oc(-c3c(COCCO)[nH]c4c(-c5ccccc5)c(C#N)nn4c3=O)nc12 [Compound C1248, 5-((2-hydroxyethoxy)methyl)-6-(4-methoxybenzo[d]oxazol-2-yl)-7-oxo-3-phenyl-4,7-dihydropyrazolo[1,5-a]pyrimidine-2-carbonitrile]"
< 20,> 100,"COC[C@@H]1COC(c2c(C)[nH]c3c(-c4ccccc4)c(C(F)(F)F)nn3c2=O)=N1 [Compound C1184, (R)-6-(4-(methoxymethyl)-4,5-dihydrooxazol-2-yl)-5-methyl-3-phenyl-2-(trifluoromethyl)pyrazolo[1,5-a]pyrimidin-7(4H)-one]"
< 20,< 20,"COc1nccc2oc(-c3c(C)[nH]c4c(-c5ccccc5)c(C(F)(F)F)nn4c3=O)nc12 [Compound C1037, 6-(4-methoxyoxazolo[4,5-c]pyridin-2-yl)-5-methyl-3-phenyl-2-(trifluoromethyl)pyrazolo[1,5-a]pyrimidin-7(4H)-one]"
< 20,< 20,"CNc1cc(OC)c2nc(-c3c(C)[nH]c4c(-c5ccccc5)c(C(F)(F)F)nn4c3=O)oc2c1 [Compound C1161, 6-(4-methoxy-6-(methylamino)benzo[d]oxazol-2-yl)-5-methyl-3-phenyl-2-(trifluoromethyl)pyrazolo[1,5-a]pyrimidin-7(4H)-one]"
< 20,> 100,"Cc1[nH]c2c(-c3ccccc3)c(C(F)(F)F)nn2c(=O)c1-c1nnc(N2CCCC2C)o1 (stereo not drawn) [Compound D1022, 5-methyl-6-(5-(2-methylpyrrolidin-1-yl)-1,3,4-oxadiazol-2-yl)-3-phenyl-2-(trifluoromethyl)pyrazolo[1,5-a]pyrimidin-7(4H)-one]"
< 20,< 20,"COc1cccc2oc(-c3c(C(=O)Nc4cn[nH]c4)[nH]c4c(-c5ccccc5)c(C(F)(F)F)nn4c3=O)nc12 [Compound C1244, 6-(4-methoxybenzo[d]oxazol-2-yl)-7-oxo-3-phenyl-N-(1H-pyrazol-4-yl)-2-(trifluoromethyl)-4,7-dihydropyrazolo[1,5-a]pyrimidine-5-carboxamide]"
< 20,> 100,"COc1cccc2oc(-c3c(COC4CCNC4=O)[nH]c4c(-c5ccccc5)c(C(F)(F)F)nn4c3=O)nc12 (stereo not drawn) [Compound C1159, 6-(4-methoxybenzo[d]oxazol-2-yl)-5-(((2-oxopyrrolidin-3-yl)oxy)methyl)-3-phenyl-2-(trifluoromethyl)pyrazolo[1,5-a]pyrimidin-7(4H)-one]"
20 to 250,> 100,"COC(C)(C)c1nnc(-c2c(C)[nH]c3c(-c4ccccc4)c(C(F)(F)F)nn3c2=O)o1 [Compound D1048, 6-(5-(2-methoxypropan-2-yl)-1,3,4-oxadiazol-2-yl)-5-methyl-3-phenyl-2-(trifluoromethyl)pyrazolo[1,5-a]pyrimidin-7(4H)-one]"
< 20,> 100,"COc1cccc2nc(-c3c(C)[nH]c4c(-c5ccccc5)c(C(F)(F)F)nn4c3=O)cn12 [Compound C1057, 6-(5-methoxyimidazo[1,2-a]pyridin-2-yl)-5-methyl-3-phenyl-2-(trifluoromethyl)pyrazolo[1,5-a]pyrimidin-7(4H)-one]"
< 20,20 to 100,"COC1CCCc2oc(-c3c(C)[nH]c4c(-c5ccccc5)c(C(F)(F)F)nn4c3=O)nc21 (stereo not drawn) [Compound C1048, 6-(4-methoxy-4,5,6,7-tetrahydrobenzo[d]oxazol-2-yl)-5-methyl-3-phenyl-2-(trifluoromethyl)pyrazolo[1,5-a]pyrimidin-7(4H)-one]"
< 20,> 100,"CO[C@](c1ccccc1)(c1nnc(-c2c(C)[nH]c3c(-c4ccccc4)c(C(F)(F)F)nn3c2=O)o1)C(F)(F)F [Compound D1029, (R)-5-methyl-3-phenyl-6-(5-(2,2,2-trifluoro-1-methoxy-1-phenylethyl)-1,3,4-oxadiazol-2-yl)-2-(trifluoromethyl)pyrazolo[1,5-a]pyrimidin-7(4H)-one]"
20 to 250,> 100,"COc1cc(C#N)cc2oc(-c3c(C)[nH]c4c(-c5ccccc5)c(C(F)(F)F)nn4c3=O)nc12 [Compound C1112, 4-methoxy-2-(5-methyl-7-oxo-3-phenyl-2-(trifluoromethyl)-4,7-dihydropyrazolo[1,5-a]pyrimidin-6-yl)benzo[d]oxazole-6-carbonitrile]"
< 20,> 100,"COCc1[nH]c2c(-c3ccccc3)c(C#N)nn2c(=O)c1-c1nc2c(OC)nccc2o1 [Compound C1246, 5-(methoxymethyl)-6-(4-methoxyoxazolo[4,5-c]pyridin-2-yl)-7-oxo-3-phenyl-4,7-dihydropyrazolo[1,5-a]pyrimidine-2-carbonitrile]"
< 20,> 100,"COc1cccc2oc(-c3c(Cn4ccnc4)[nH]c4c(-c5ccccc5)c(C(F)(F)F)nn4c3=O)nc12 [Compound C1180, 5-((1H-imidazol-1-yl)methyl)-6-(4-methoxybenzo[d]oxazol-2-yl)-3-phenyl-2-(trifluoromethyl)pyrazolo[1,5-a]pyrimidin-7(4H)-one]"
< 20,> 100,"Cc1[nH]c2c(-c3ccccc3)c(C(F)(F)F)nn2c(=O)c1-c1nnc(C2=NCCCN2)o1 [Compound D1072, 5-methyl-3-phenyl-6-(5-(1,4,5,6-tetrahydropyrimidin-2-yl)-1,3,4-oxadiazol-2-yl)-2-(trifluoromethyl)pyrazolo[1,5-a]pyrimidin-7(4H)-one]"
< 20,> 100,"Cc1[nH]c2c(-c3ccccc3)c(C(F)(F)F)nn2c(=O)c1C(=O)NS(=O)(=O)c1cccc(C#N)c1 [Compound A1128, N-((3-cyanophenyl)sulfonyl)-5-methyl-7-oxo-3-phenyl-2-(trifluoromethyl)-4,7-dihydropyrazolo[1,5-a]pyrimidine-6-carboxamide]"

Structure (SMILES),IC50 [1] [µM],IC50 [2] [µM]
"COc1cccc2oc(-c3c(C(=O)NCC(O)C(F)(F)F)[nH]c4c(-c5ccccc5)c(C(F)(F)F)nn4c3=O)nc12 (stereo not drawn) [Compound C1209, 6-(4-methoxybenzo[d]oxazol-2-yl)-7-oxo-3-phenyl-N-(3,3,3-trifluoro-2-hydroxypropyl)-2-(trifluoromethyl)-4,7-dihydropyrazolo[1,5-a]pyrimidine-5-carboxamide]",< 20,> 100
